Experimental data as given in patent US20260176254A1, “INHIBITORS OF PROSTATE SPECIFIC MEMBRANE ANTIGEN AND USE THEREOF” (SHANGHAI SINOTAU BIOTECH. CO., LTD, priority 2023, published 2026).

Target: T1, recombinant human PSMA (rhPSMA) (Homo sapiens, UniProt Q04609)
T1 construct: purchased Sino Biological
Assay: Naaladase assay (fluorescence-based Naaladase activity inhibition)
Format: biochemical
Conditions: rhPSMA 0.4 μg/mL, substrate N-Acetyl-Asp-Glu 40 μM, 37° C. one hour
Description: Naaladase activity inhibition was determined using a fluorescence-based assay. Briefly, the solution containing the substrate N-Acetyl-Asp-Glu (Sigma-Aldrich) at 40 μM and the compound at concentrations from 0.15 nM to 1000 nM was mixed at equal volume with recombinant human PSMA (rhPSMA, Sino Biological) at 0.4 μg/mL, in assay buffer (50 mM HEPES, 100 mM NaCl, pH 7.5). The enzymatic reaction was proceeded by incubation at 37° C. for one hour and then stopped by heating at 95° C. for 5 minutes. A solution of 15 mM ortho-phthaldialdehyde (Sigma-Aldrich) was added to all vials and incubated for 10 min at ambient temperature. The reaction solutions were loaded onto a 96-well flat clear bottom black microplates (Corning) and read at excitation and emission wavelengths of 330 and 450 nm, respectively, using a microplate reader (Tecan). The data were analyzed by a one-site total binding regression algorithm of GraphPad Prism (GraphPad Software).

T1 sequence (Q04609 whole entry): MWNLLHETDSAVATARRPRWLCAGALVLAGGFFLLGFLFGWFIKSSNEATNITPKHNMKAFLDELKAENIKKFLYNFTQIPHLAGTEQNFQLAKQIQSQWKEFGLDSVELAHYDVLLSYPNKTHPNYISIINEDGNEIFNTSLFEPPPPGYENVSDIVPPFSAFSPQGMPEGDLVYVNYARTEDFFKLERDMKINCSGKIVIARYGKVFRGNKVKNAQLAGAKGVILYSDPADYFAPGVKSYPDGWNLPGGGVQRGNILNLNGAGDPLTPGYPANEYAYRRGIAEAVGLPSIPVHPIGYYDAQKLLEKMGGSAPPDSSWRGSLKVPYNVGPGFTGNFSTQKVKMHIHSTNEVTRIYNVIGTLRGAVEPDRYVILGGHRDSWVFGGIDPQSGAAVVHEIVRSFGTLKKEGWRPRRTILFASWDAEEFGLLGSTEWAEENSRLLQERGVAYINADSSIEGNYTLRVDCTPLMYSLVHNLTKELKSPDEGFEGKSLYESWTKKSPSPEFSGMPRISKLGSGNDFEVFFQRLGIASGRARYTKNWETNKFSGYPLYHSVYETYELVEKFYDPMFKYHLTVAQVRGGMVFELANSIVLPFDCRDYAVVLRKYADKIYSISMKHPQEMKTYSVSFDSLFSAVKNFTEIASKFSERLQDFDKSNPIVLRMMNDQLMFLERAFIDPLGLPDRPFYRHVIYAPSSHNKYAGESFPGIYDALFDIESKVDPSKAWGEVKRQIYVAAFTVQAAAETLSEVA

IC50: 1.8 nM
Structure (SMILES): NC(=O)CN1CCN(CC(=O)O)CCN(Cc2nnc(C34CCC(Nc5c(N[C@@H](Cc6c7ccccc7cc7ccccc67)C(=O)NCCCC[C@H](NC(=O)N[C@@H](CCCC(=O)O)C(=O)O)C(=O)O)c(=O)c5=O)(CC3)CC4)o2)CCN(CC(=O)O)CC1 [E20]
